Patent US20160281125A1, “ANTIMICROBIAL COMPOUND SUSCEPTIBILITY TEST” (priority 2013, published 2016)

Assays:
E. clo 13047 = test: Selective lysis test, OD600 turbidity (Example 1); assay type: cell-based, Enterobacter cloacae
Method: (§1) An isolated colony from an overnight Tryptocase Soy Agar (TSA) plate of each bacterial strain was suspended in 1 ml Tryptocasc Soy Broth (TSB) in a 5 ml BD polystyrene round bottom tube. TSB cultures were incubated shaking at 37° C. overnight. Ten of the overnight culture was inoculated into lml TSB and incubated shaking at 37° C. for three hours. Two […] aliquots of each log-phase culture were then transferred to two 2 ml Eppendorf microcentrifuge tubes. One tube contained 5000 of Normal Saline (BD); the second tube contained 5000 Normal Saline with meropenem at 10 μg/ml (final concentration of meropenem of 6.67 10 μg/ml). Tubes were inverted and then incubated at 37° C. stagnant for thirty minutes. Then […] of lysis buffer (0.5% SDS in PSB) (final concentration of SDS of 0.125%) was added to each tube and the tubes were vortexed for 5 seconds. Post incubation, all tubes were spun at 10000 G for 5 minutes. Supernatant was decanted and the pellet resuspended in Normal Saline. Tubes were vortexed again. OD600 was measured using Eppendorf uvettes in a spectrophotometer. The delta between the OD600 of the normal saline control and the OD600 for the test sample exposed to meropenem in normal saline was used to determine susceptibility of the bacterial strain to meropenem.

K. oxy KPC 46532 = test: Selective lysis test, OD600 turbidity (Example 1); assay type: cell-based, Klebsiella oxytoca
Method: as §1
(§2) The tested resistant strains were Klebsiella pneumoniae carbapenemase (KPC)-producing bacteria (abbreviated “KPC”), KPC-producing Klebsiella oxytoca (abbreviated “KPC K. oxy), and Klebsiella pneumoniae producing Metallo-beta-lactamase-1 (NDM-1) (abbreviated “NDM”).

K. pneumo KPC 12213 = test: Selective lysis test, OD600 turbidity (Example 1); assay type: cell-based, Klebsiella pneumoniae
Method: as §1, §2

K. pneumo KPC 1705 = test: Selective lysis test, OD600 turbidity (Example 1); assay type: cell-based, Klebsiella pneumoniae
Method: as §1, §2

K. pneumo KPC 24605 = test: Selective lysis test, OD600 turbidity (Example 1); assay type: cell-based, Klebsiella pneumoniae
Method: as §1, §2

K. pneumo KPC 41217 = test: Selective lysis test, OD600 turbidity (Example 1); assay type: cell-based, Klebsiella pneumoniae
Method: as §1, §2

K. pneumo KPC 4121 = test: Selective lysis test, OD600 turbidity (Example 1); assay type: cell-based, Klebsiella pneumoniae
Method: as §1, §2

K. pneumo KPC 65707 = test: Selective lysis test, OD600 turbidity (Example 1); assay type: cell-based, Klebsiella pneumoniae
Method: as §1, §2

K. pneumo KPC KPC12 = test: Selective lysis test, OD600 turbidity (Example 1); assay type: cell-based, Klebsiella pneumoniae
Method: as §1, §2

K. pneumo NDM 2146 = test: Selective lysis test, OD600 turbidity (Example 1); assay type: cell-based, Klebsiella pneumoniae
Method: as §1, §2

[1] = system: K. pneumo BAA-2146 (NDM1); test: Selective lysis test, OD600, meropenem and cefotaxime (Example 2); assay type: cell-based, K. pneumoniae
Method: In this experiment the following strains were tested: strain K. pneumoniae 13882 (previously considered meropenem sensitive and cefotaxime sensitive); E. coli BAA-197 (ESBL) (which expresses an extended-spectrum (beta)-lactamase enzyme and was previously considered meropenem sensitive and cefotaxime resistant); K. pneumoniae BAA-1705 (KPC) (which expresses a carbapenemase enzyme and was previously considered meropenem resistant and cefotaxime resistant); and K. pneumoniae BAA-2146 (NDM1) (which expresses the metallo-beta-lactamase-1 enzyme and was previously considered meropenem resistant and cefotaxime resistant).
An isolated colony from an overnight Tryptocase Soy Agar (TSA) plate of each bacteria was suspended in 1 ml Tryptocase Soy Broth (TSB) in a 5 ml BD polystyrene round bottom tube. TSB cultures were incubated at 37° C. for 1.5 hours shaking. Three 250 μl aliquots of each stationary-phase culture were then transferred to three 2 ml Eppendorf microcentrifuge tubes. One tube contained 500 μl of Normal Saline (BD); the second tube contained 500 μl Normal Saline with meropenem at 10 μg/ml; and the third tube contained 500 μl Normal Saline with cefotaxime (abbreviated […]) at 10 μg/ml. Tubes were inverted then incubated at 37° C. stagnant for thirty minutes. Then […] of lysis buffer (0.5% SDS in PSB) was added to each tube and each tube was vortexed for 5 seconds. Post incubation, all tubes were spun at 10000 G for 5 minutes. Supernatant was decanted and the pellet resuspended in Normal Saline. Tubes were vortexed. OD600 was measured using Eppendorf uvettes in a spectrophotometer. The delta between the control and the meropenem normal saline, or the control and the cefotaxime normal saline was used to determine susceptibility.

[2] = system: strains previously considered resistant to meropenem; test: Selective lysis OD600 test, summary over the strains of Table 2; assay type: cell-based, Klebsiella pneumoniae, Klebsiella oxytoca; details: 8 of the 9 strains of Table 2
Method: as §1, with “meropenem. […]” for “meropenem.”

[3] = OD600 vs control without meropenem
[4] = meropenem 10 μg/ml, 30 min, SDS lysis buffer + vortex

C[C@@H](O)[C@H]1C(=O)N2C(C(=O)O)=C(S[C@@H]3CN[C@H](C(=O)N(C)C)C3)[C@H](C)[C@H]12 [meropenem]
R or S (E. clo 13047): S (a percentage change of greater than about 85% indicates a strain is susceptible)
% Change (E. clo 13047; [3]): 95%
Mero OD600 (E. clo 13047; [4]): 0.06
R or S (K. oxy KPC 46532): S (a percentage change of greater than about 85% indicates a strain is susceptible)
% Change (K. oxy KPC 46532; [3]): 71%
Mero OD600 (K. oxy KPC 46532; [4]): 0.259
R or S (K. pneumo KPC 12213): R
% Change (K. pneumo KPC 12213; [3]): −5%
Mero OD600 (K. pneumo KPC 12213; [4]): 1.454
R or S (K. pneumo KPC 1705): R
% Change (K. pneumo KPC 1705; [3]): −32%
Mero OD600 (K. pneumo KPC 1705; [4]): 1.65
R or S (K. pneumo KPC 24605): R
% Change (K. pneumo KPC 24605; [3]): 6%
Mero OD600 (K. pneumo KPC 24605; [4]): 2.0363
R or S (K. pneumo KPC 41217): R
% Change (K. pneumo KPC 41217; [3]): 5%
Mero OD600 (K. pneumo KPC 41217; [4]): 1.764
R or S (K. pneumo KPC 4121): R
% Change (K. pneumo KPC 4121; [3]): −3%
Mero OD600 (K. pneumo KPC 4121; [4]): 1.734
R or S (K. pneumo KPC 65707): R
% Change (K. pneumo KPC 65707; [3]): 12%
Mero OD600 (K. pneumo KPC 65707; [4]): 1.887
R or S (K. pneumo KPC KPC12): R
% Change (K. pneumo KPC KPC12; [3]): 2%
Mero OD600 (K. pneumo KPC KPC12; [4]): 1.844
R or S (K. pneumo NDM 2146): R
% Change (K. pneumo NDM 2146; [3]): 18%
Mero OD600 (K. pneumo NDM 2146; [4]): 1.576
% diff ([1]; K. pneumo BAA-2146 (NDM1), OD600 vs control): −0.3%
OD600 ([1]; K. pneumo BAA-2146 (NDM1), antibiotic 10 μg/ml, 30 min, SDS lysis buffer + vortex, 1.5 h culture): 0.301
assay score (sensitive or resistant) ([1]; K. pneumoniae BAA-2146 (NDM1)): resistant
decrease of OD600 turbidity vs negative control [2]: ≤ 18%
